Data from patent publication US11529397B2, “Method of treating mucopolysaccharidosis type IVA” (Saint Louis University, priority 2018, dated 2022).

Columns and labels:
splenocytes [1] = experiment: Secreted cytokines of splenocytes in Morquio A mouse models and WT mice treated by ERT (Examples 10-13); type: cell-based; settings: for IL-4 secretion / IL-5 secretion / IL-13 secretion: MTol mice
Protocol: (§1) Morquio A mouse models: a). […] 14(22): p. 3321-35).c). Missense mutation mice (Galnstm (C76S) SLU C2) (Tomatsu et al. (2007) Mol Genet Metab., 91(3): p. 251-8), and wild-type C57BL6 mice were treated by ERT. […] A control group received PBS.
(§2) The suspension was centrifuged at 1,000 rpm during 10 minutes.
(§3) Cytokines were determined in the cell culture supernatants. […] Cells were centrifuged at 1000 rpm during 10 min. Secreted cytokines (IL-4, IL-5, IL-13, and IFN-γ) in the collected supernatants were detected by a bead immunoassay kit which allow the measurement of multiple proteins simultaneously (LUMINEX xMAP Technology, using a Millipore Milliplex™ kit) according to manufacturer's instructions.

splenocytes [2] = experiment: Screening of peptides by splenocytes proliferation, retest in MKC mice (Examples 5-6); type: cell-based, mouse; settings: MKC mice, 16, 22 and 24 infusions; with higher number of infusions
Protocol: of body weight through the tail vein. A control group received PBS. […] The suspension was centrifuged at 1,000 rpm during 10 minutes. […] The specificity of cellular response against the peptides or the complete enzyme in the in vitro stimulation was determined by splenocyte proliferation or cytokine secretion in ERT treated mice or PBS injected control mice. […] 3H-Thymidine incorporation was measured by β-Scintillation counter (Trilux Microbeta Counter). Proliferation data are expressed as counts per minute (cpm) values (FIG. 5). (Mirano-Bascos et al. (2010) J Virol. 84(7): p. 3303-11).

MKC mice [3] = experiment: Regulatory markers (CTLA-4, TGF-β) mRNA in Peyer patches after induction of tolerance (Example 21); type: in vivo, mouse; settings: real-time PCR, oral 50, 100 or 500 μg
From the text: FIG. 25. Up-regulation of TGF-β expression after induction of tolerance in mice PP. […] Control groups were fed with PBS. […] The fold change in expression was related to the values of non-tolerized group. GAPDH was using as a housekeeping gene for the data normalization.
FIG. 26. Up-regulation of CTLA-4 expression after induction of tolerance in mice PP. […] Control groups were fed with PBS. […] The fold change in expression was related to the values of non-tolerized group. GAPDH was using as a housekeeping gene for the data normalization.
Regulatory Markers Evaluation in Peyer Patches (PP) after Induction of Tolerance. […] Most of the mice presented up-regulation of these regulatory molecules when compare with the non-tolerized group.

splenocytes [4] = experiment: Splenocyte proliferation after in vitro stimulation with peptides or GALNS (Examples 2, 4); type: cell-based, mouse; settings: for proliferation of splenocytes relative to age of the animal and length of treatment: MKC mice, weeks of infusion
Protocol: Mice (MKC) genetically engineered not to express GALNS were used in these examples. […] 200 μl of the emulsion were administered as a subcutaneous injection. […] Control mice (n=2) were immunized with PBS emulsified in CFA and IFA respectively (Chung et al. (2005) J. Leukoc Biol. 77(6):906-13)). […] A control group (n=5) received PBS (Tomatsu et al. (2008) Hum Mol Genet. 15; 17(6):815-24). […]
Ten days after the last immunization or the last infusion, the mice were euthanized and the spleen was aseptically removed. […] The suspension was centrifuged at 1000 rpm […]. The red blood cells were lysed using a hypotonic lysis buffer (Sigma® R7757). […] Cells were pulsed with 1 JpCi of [3H]thymidine for the last 18 h of incubation. [3H]thymidine incorporation was measured by […] (Trilux Microbeta Counter). The Stimulation Index (SI) was calculated as the mean value of the three wells for each condition divided by the mean value of the unstimulated cells (Mirano-Bascos (2010) J Virol. 84(7):3303-11).

MKC mice [5] = experiment: Oral tolerance protocol followed by ERT, overall outcome; type: in vivo, mouse; settings: oral administration prior to ERT
From the text: (§4) Control groups (7 and 8) received PBS alone.

MKC mice [6] = experiment: Oral tolerance induction: secreted cytokines after GALNS in vitro stimulation (Examples 15-18); type: in vivo, mouse; settings: for IFN-γ secretion after oral treatment: oral 50, 100 or 500 μg, GALNS in vitro stimulation
From the text: as §4
Secreted cytokines (IL-4, IL-5, IL-10, IL-13 and IFN-γ) in the collected supernatants were detected by a bead immunoassay kit which allow the measurement of multiple proteins simultaneously (LUMINEX xMAP Technology, using a Millipore Milliplex™) kit according manufacturer's instructions (FIG. 6).

splenocytes [7] = experiment: Secreted cytokine profile of splenocytes, retest in MKC mice (Example 7); type: cell-based, mouse; settings: for IL-5 secretion, ERT treated vs PBS controls, p or significance / IL-13 secretion, ERT treated vs PBS controls, p or significance / profile of secreted cytokines, ERT treated vs PBS treated mice: MKC mice; for levels of IL-4 secretion among the stimuli / levels of IL-5 secretion among the stimuli: MKC mice treated by ERT; for profile of secreted cytokines, ERT treated vs PBS treated mice: 16 i.v. infusions
Protocol: The predicted peptides from Example 1 were reevaluated in MKC mice to reaffirm the selection of peptides 4, 8, and 10. […] A control group received PBS. […] The suspension was centrifuged at 1,000 rpm during 10 minutes. […] The specificity of cellular response against the peptides or the complete enzyme in the in vitro stimulation was determined by splenocyte proliferation or cytokine secretion in ERT treated mice or PBS injected control mice.
as §3, with “1,000” for “1000”, “instructions (FIG. 5).” for “instructions.”

splenocytes [8] = experiment: Splenocytes proliferation in Morquio A mouse models and WT mice treated by ERT (Example 9); type: cell-based
Protocol: as §1, §2
Thymidine incorporation was measured by β-Scintillation counter (Trilux Microbeta Counter) Mirano-Bascos, et al. (2010) J Virol. 84(7): p. 3303-11).

Molecule | IFN-γ secretion, MKC vs MTol mice treated by ERT, p or significance (splenocytes [1]) | IL-4 secretion (splenocytes [1]) | IL-5 secretion (splenocytes [1]) | IL-13 secretion (splenocytes [1]) | relationship between number of weekly i.v. infusions and cpm values of splenocytes proliferation (splenocytes [2]) | TGF-β expression in Peyer patches vs non-tolerized group (MKC mice [3]) | proliferation of splenocytes relative to age of the animal and length of treatment (splenocytes [4]) | inducing oral tolerance to GALNS (MKC mice [5]) | IFN-γ secretion after oral treatment (MKC mice [6]) | IL-5 secretion, ERT treated vs PBS controls, p or significance (splenocytes [7]) | IL-13 secretion, ERT treated vs PBS controls, p or significance (splenocytes [7]) | levels of IL-4 secretion among the stimuli (splenocytes [7]) | levels of IL-5 secretion among the stimuli (splenocytes [7]) | profile of secreted cytokines, ERT treated vs PBS treated mice (splenocytes [7]) | splenocytes proliferation, ERT treated vs PBS controls (splenocytes [8]; C2 mice) | splenocytes proliferation, ERT treated vs PBS controls (splenocytes [8]; MKC mice) | splenocytes proliferation, ERT treated vs PBS controls (splenocytes [8]; WT mice) | further results
QQHQEALVPAQPQLNVTNWA (listed as Homo sapiens) [Peptide I10] | 0.044 | did not present secretion of IL-4 | did not present secretion of IL-5 | did not show any secretion of IL-13 | lower levels of proliferation | observed in both groups | highest response at 16 weeks | effective | down-regulated | 0.0094 | 0.0002 | Higher levels | Higher levels | statistically significant difference | statistically significant difference | statistically significant | statistically significant difference | specific cellular response after splenocytes in vitro stimulation (splenocytes [1]; mice treated by ERT, compared with GALNS stimulation): very similar to the one observed by in vitro stimulation with GALNS; CTLA-4 expression in Peyer patches vs non-tolerized group (MKC mice [3]): predominantly up-regulated; splenocyte proliferation response (splenocytes [4]; splenocytes of MKC mice treated by ERT with GALNS, in vitro peptide stimulation): strong response
N-acetylgalactosamine-6-sulfatase (protein, listed as Homo sapiens, recombinant human GALNS produced in CHO cells, used for ERT and oral tolerance) APQPPNILLLLMDDMGWGDLGVYGEPSRETPNLDRMAAEGLLFPNFYSANPLCSPSRAALLTGRLPIRNGFYTTNAHARNAYTPQEIVGGIPDSEQLLPELLKKAGYVSKIVGKWHLGHRPQFHPLKHGFDEWFGSPNCHFGPYDNKARPNIPVYRDWEMVGRYYEEFPINLKTGEANLTQIYLQEALDFIKRQARHHPFFLYWAVDATHAPVYASKPFLGTSQRGRYGDAVREIDDSIGKILELLQDLHVADNTFVFFTSDNGAALISAPEQGGSNGPFLCGKQTTFEGGMREPALAWWPGHVTAGQVSHQLGSIMDLFTTSLALAGLTPPSDRAIDGLNLLPTLLQGRLMDRPIFYYRGDTLMAATLGQHKAHFWTWTNSWENFRQGIDFCPGQNVSGVTTHNLEDHTKLPLIFHLGRDPGERFPLSFASAEYQEALSRITSVVQQHQEALVPAQPQLNVCNWAVMNWAPPGCEKLGKCLTPPESIPKKCLWSH | not statistically significant | did not present secretion of IL-4 | did not present secretion of IL-5 | did not show any secretion of IL-13 | lower levels of proliferation | observed in both groups | highest response at 16 weeks | effective | did not show any modulation | 0.0029 | 0.0152 | Higher levels | Higher levels | statistically significant difference | statistically significant difference | statistically significant | statistically significant difference | IL-10 secretion after oral treatment (MKC mice [6]; mice treated orally): down-regulation of IL-10
